Results as given in patent publication US6569622B1, “Nucleic acids encoding a protein conferring an inducible resistance to glycopeptide, particularly in gram-positive bacteria” (Institut Pasteur, priority 1992, dated 2003).
Values after ≈ are worked out from the molar mass of the structure shown.

Columns and labels:
Experiment in all cases: MIC determination on agar (method of Steers et al.)
[1] = tested on: E. faecalis; type: cell-based, Enterococcus faecalis
Method: (§1) A brain-heart medium and agar (Difco Laboratories, Detroit, Mich.) were used. Sensitivity tests were performed on Mueller-Hinton agar (Diagnostics Pasteur, Marne LaCoquette, France). All of the incubations were performed at 37° C.
(§2) The disk diffusion test with disks containing 30 μg of vancomycin or 30 μg of teicoplanin (Diagnostics Pasteur) was used for the initial screening. The method of Steers et al. with 10^4 CFU per spot was used to determine the MIC of the antibiotics (Steers E. et al., Antibiot. Chemother. (Basel) 1959, 9: 307-11)

[2] = tested on: E. faecium; type: cell-based, Enterococcus faecium
Method: as §1, §2

[3] = tested on: E. casseliflavus; type: cell-based
Method: as §1, §2

[4] = tested on: E. gallinarum; type: cell-based
Method: as §1, §2

[5] = tested on: Enterococcus spp. (susceptible); type: cell-based
Method: as §1, §2

[6] = tested on: Lactobacillus spp.; type: cell-based
Method: as §1, §2

[7] = tested on: Pediococcus spp.; type: cell-based
Method: as §1, §2

[8] = tested on: Leuconostoc. sp.; type: cell-based, Leuconostoc mesenteroides
Method: as §1, §2

[9] = tested on: E. rhusiopathiae; type: cell-based, Erysipelothrix rhusiopathiae
Method: as §1, §2

[10] = tested on: isolates of E. faecium and E. faecalis resistant to high concentrations of vancomycin; type: cell-based; conditions: 15 isolates resistant to high concentrations of vancomycin, including V583-2 and UMH-1
Text: Bacterial strains: 39 isolates of E. faecium (28 strains) and E. faecalis (11 strains) resistant to low and high concentrations of vancomycin and sensitive to teicoplanin were studied (Table II). Among these strains 24 isolates including E. faecalis V583 (Sahm D. et al., Antimicrob. Agents Chemother. 1989, 33: 1588-91) and E. faecium D366 (Gutmnann L. et al., Antimicrob. Agents Chemother. 1992, 36: 77-80) were resistant to low concentrations of vancomycin on the basis of a disk sensitivity test. […] The control strains were well-characterized strains of entercocci belonging to the phenotypes A and C and hybridizing with the probes VanA and VanC, respectively. In particular there are 6 clinical isolates of E. faecium highly resistant to vancomycin and to teicoplanin, including BM4147. The strains of E. gallinarum including […] belonging to class C were also used as controls. Strains of E. casseliflavus are also used as controls, including the strain ATCC 25788, which are isolates intrinsically resistant to low levels of vancomycin and sensitive to teicoplanin (Leclercq R. et al., Antimicrob. Agents Chemother. 1992, 36: 2005-8).
A brain-heart medium and agar (Difco Laboratories, Detroit, Mich.) were used. Sensitivity tests were performed on Mueller-Hinton agar (Diagnostics Pasteur, Marne LaCoquette, France). All of the incubations were performed at 37° C. […]

[11] = E. gallinarum(3), phenotypic class C, genotypic class C

CN[C@H](CC(C)C)C(=O)N[C@H]1C(=O)N[C@@H](CC(N)=O)C(=O)N[C@H]2C(=O)N[C@H]3C(=O)N[C@H](C(=O)N[C@H](C(=O)O)c4cc(O)cc(O)c4-c4cc3ccc4O)[C@H](O)c3ccc(c(Cl)c3)Oc3cc2cc(c3O[C@@H]2O[C@H](CO)[C@@H](O)[C@H](O)[C@H]2O[C@H]2C[C@](C)(N)[C@H](O)[C@H](C)O2)Oc2ccc(cc2Cl)[C@H]1O [Vancomycin, vancomycin]
MIC ([1]; Enterococcus faecalis, ATCC29212, E. faecalis strain ATCC 29212): 2 µg/mL (≈ 1.38 µM) | MIC ([1]; Enterococcus faecalis, E. faecalis strain UMH-1): 1020 µg/mL (≈ 707 µM) | MIC ([1]; Enterococcus faecalis, E. faecalis strain V583): 64 µg/mL (≈ 44.2 µM) | MIC ([1]; Enterococcus faecalis, E. faecalis strain V583-2): 1020 µg/mL (≈ 707 µM) | MIC ([1]; Enterococcus faecalis, E. faecalis strain V583-C1): 2 µg/mL (≈ 1.38 µM) | MIC ([1]; Enterococcus faecalis, E. faecalis(11), phenotypic class B, genotypic class B): 4 to 1020 µg/mL (≈ 2.76 to 707 µM) | MIC ([2]; Enterococcus faecium, ATCC19434, E. faecium strain ATCC 19434): 1 µg/mL (≈ 0.69 µM) | MIC ([2]; Enterococcus faecium, E. faecium strain BM4147): 1020 µg/mL (≈ 707 µM) | MIC ([2]; Enterococcus faecium, E. faecium strain D366): 32 µg/mL (≈ 22.1 µM) | MIC ([2]; Enterococcus faecium, E. faecium strain MT10R): 2 µg/mL (≈ 1.38 µM) | MIC ([2]; Enterococcus faecium, E. faecium(28), phenotypic class B, genotypic class B): 4 to 256 µg/mL (≈ 2.76 to 177 µM) | MIC ([3]; Enterococcus casseliflavus, E. casseliflavus (Table I, strain not given)): 8 µg/mL (≈ 5.52 µM) | MIC ([3]; Enterococcus casseliflavus, E. casseliflavus(2), phenotypic class C, genotype NC): 4 to 8 µg/mL (≈ 2.76 to 5.52 µM) | MIC [4, 11]: 8 µg/mL (≈ 5.52 µM) | MIC ([4]; Enterococcus gallinarum, GALLINARUM): 8 µg/mL (≈ 5.52 µM) | MIC ([5]; Enterococcus): 0.5 to 2 µg/mL (≈ 0.345 to 1.38 µM) | MIC ([6]; Lactobacillus): > 1 µg/mL | MIC ([7]; Pediococcus): > 1 µg/mL | MIC ([8]; Leuconostoc mesenteroides): > 1 µg/mL | MIC ([9]; Erysipelothrix rhusiopathiae): > 1 µg/mL | MIC [10]: ≥ 128 µg/mL

teicoplanin
MIC ([1]; E. faecalis strain ATCC 29212): 0.5 µg/mL | MIC ([1]; E. faecalis strain UMH-1): 1.0 µg/mL | MIC ([1]; E. faecalis strain V583): 0.5 µg/mL | MIC ([1]; E. faecalis strain V583-2): 1.0 µg/mL | MIC ([1]; E. faecalis strain V583-C1): 0.5 µg/mL | MIC ([1]; E. faecalis(11), phenotypic class B, genotypic class B): 0.5 to 1 µg/mL | MIC ([2]; E. faecium strain ATCC 19434): 1 µg/mL | MIC ([2]; E. faecium strain BM4147): 512 µg/mL | MIC ([2]; E. faecium strain D366): 0.5 µg/mL | MIC ([2]; E. faecium strain MT10R): 0.25 µg/mL | MIC ([2]; E. faecium(28), phenotypic class B, genotypic class B): 0.5 to 1 µg/mL | MIC ([3]; E. casseliflavus (Table I, strain not given)): 1 µg/mL | MIC ([3]; E. casseliflavus(2), phenotypic class C, genotype NC): 0.5 to 1 µg/mL | MIC ([4]; E. gallinarum strain BM4174): 1 µg/mL | MIC [4, 11]: 1 µg/mL | MIC ([5]; Enterococcus spp.(10), phenotypic class Susceptible): 0.25 µg/mL | MIC ([6]; Lactobacillus spp.(8)): >1.000 µg/mL | MIC ([7]; Pediococcus spp.(2)): >1.000 µg/mL | MIC ([8]; Leuconostoc. sp.(1)): >1.000 µg/mL | MIC ([9]; E. rhusiopathiae(1)): >1.000 µg/mL
